Source: PubChem BioAssay AID256 (DTP/NCI, 2004)
Values joined by “and” are separate entries in the source; they are usually repeats but may differ in a detail not shown here. Equal values may be shown once. Inconclusive results and toxic doses are left out. How the source made its calls: active means survival T/C of 150% or more; inactive means T/C below 125% in these data.

System: CD2F1 mice, L1210 leukemia ip, survival T/C
Experiment: NCI In Vivo Anticancer Drug Screen. Data for tumor model L1210 Leukemia (intraperitoneal) in CD2F1 (CDF1) mice
Settings: higher = longer survival
How it was run: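 Vehicle-treated tumor-bearing mice served as controls (C) for compound-treated mice (T). Reported figure is T divided by C.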

[1] = endpoint: mean survival time, dose: 50.0 mg/kg/injection, schedule: Q01DX009 (ip), vehicle: saline with Tween-80
[2] = endpoint: mean survival time, dose: 100.0 mg/kg/injection, schedule: Q01DX009 (ip), vehicle: saline with Tween-80
[3] = endpoint: mean survival time, dose: 200.0 mg/kg/injection, schedule: Q01DX009 (ip), vehicle: saline with Tween-80
[4] = endpoint: mean survival time, dose: 100.0 mg/kg/injection, schedule: Q04DX003 (ip), vehicle: saline with Tween-80
[5] = endpoint: mean survival time, dose: 200.0 mg/kg/injection, schedule: Q04DX003 (ip), vehicle: saline with Tween-80
[6] = endpoint: mean survival time, dose: 400.0 mg/kg/injection, schedule: Q04DX003 (ip), vehicle: saline with Tween-80
[7] = endpoint: mean survival time, dose: 100.0 mg/kg/injection, schedule: Q04DX003 (ip), vehicle: saline
[8] = endpoint: mean survival time, dose: 200.0 mg/kg/injection, schedule: Q04DX003 (ip), vehicle: saline
[9] = endpoint: mean survival time, dose: 100.0 mg/kg/injection, schedule: Q01DX001 (ip), vehicle: saline with Tween-80
[10] = endpoint: mean survival time, dose: 200.0 mg/kg/injection, schedule: Q01DX001 (ip), vehicle: saline with Tween-80
[11] = endpoint: mean survival time, dose: 400.0 mg/kg/injection, schedule: Q01DX001 (ip), vehicle: saline with Tween-80

Measured: T/C

[Cl][Pt+2][Cl].[NH-]c1ccccc1C(F)(F)F.[NH-]c1ccccc1C(F)(F)F
inactive: endpoint: mean survival time, dose: 12.5 mg/kg/injection, schedule: Q04DX003 (ip), vehicle: distilled water + Tween-80 97 % of control | endpoint: mean survival time, dose: 25.0 mg/kg/injection, schedule: Q04DX003 (ip), vehicle: distilled water + Tween-80 97 % of control | endpoint: mean survival time, dose: 50.0 mg/kg/injection, schedule: Q04DX003 (ip), vehicle: distilled water + Tween-80 106 % of control | endpoint: mean survival time, dose: 100.0 mg/kg/injection, schedule: Q04DX003 (ip), vehicle: distilled water + Tween-80 114 % of control

CCCCOC(=O)CC(O)C(=O)OCCCC (stereo not given)
inactive: [1] 113 % of control | [2] 107 % of control | [3] 103 % of control

Cc1c(Cl)cccc1N=Cc1ccc2c(c1)OCO2
inactive: endpoint: mean survival time, dose: 100.0 mg/kg/injection, schedule: Q04DX003 (ip), vehicle: Klucel (hydroxypropylcellulose) (HPC) 102 % of control | endpoint: mean survival time, dose: 200.0 mg/kg/injection, schedule: Q04DX003 (ip), vehicle: Klucel (hydroxypropylcellulose) (HPC) 96 % of control | endpoint: mean survival time, dose: 400.0 mg/kg/injection, schedule: Q04DX003 (ip), vehicle: Klucel (hydroxypropylcellulose) (HPC) 102 % of control

Cc1ccc(NC(=O)/C=C/C(=O)O)cc1
inactive: [2] 105 % of control | [3] 107 % of control | endpoint: mean survival time, dose: 400.0 mg/kg/injection, schedule: Q01DX009 (ip), vehicle: saline with Tween-80 103 % of control

C/C=C(\Cl)C1=CC(=O)C23CC2C2(C)COC1(O)C3(O)O2 (stereo not given)
inactive: endpoint: mean survival time, dose: 1.5 mg/kg/injection, schedule: Q01DX009 (ip), vehicle: saline with Tween-80 93 % of control | endpoint: mean survival time, dose: 3.0 mg/kg/injection, schedule: Q01DX009 (ip), vehicle: saline with Tween-80 93 % of control | endpoint: mean survival time, dose: 6.0 mg/kg/injection, schedule: Q01DX009 (ip), vehicle: saline with Tween-80 110 % of control

COc1cc2ccc3c4cc5c(cc4c[n+](C)c3c2cc1OC)OCO5
inactive: endpoint: mean survival time, dose: 10.0 mg/kg/injection, schedule: Q01DX009 (ip), vehicle: Klucel (hydroxypropylcellulose) (HPC) 119 % of control | endpoint: mean survival time, dose: 20.0 mg/kg/injection, schedule: Q01DX009 (ip), vehicle: Klucel (hydroxypropylcellulose) (HPC) 119 % of control | endpoint: mean survival time, dose: 40.0 mg/kg/injection, schedule: Q01DX009 (ip), vehicle: Klucel (hydroxypropylcellulose) (HPC) 121 % of control | endpoint: mean survival time, dose: 80.0 mg/kg/injection, schedule: Q01DX009 (ip), vehicle: Klucel (hydroxypropylcellulose) (HPC) 115 % of control | endpoint: mean survival time, dose: 160.0 mg/kg/injection, schedule: Q01DX009 (ip), vehicle: Klucel (hydroxypropylcellulose) (HPC) 97 % of control

COP1(=S)OCC2OC(n3cc(C)c(=O)[nH]c3=O)CC2O1 (stereo not given)
inactive: endpoint: mean survival time, dose: 12.5 mg/kg/injection, schedule: Q01DX005 (ip), vehicle: distilled water + Tween-80 101 % of control | endpoint: mean survival time, dose: 25.0 mg/kg/injection, schedule: Q01DX005 (ip), vehicle: distilled water + Tween-80 102 % of control | endpoint: mean survival time, dose: 50.0 mg/kg/injection, schedule: Q01DX005 (ip), vehicle: distilled water + Tween-80 102 % of control | endpoint: mean survival time, dose: 100.0 mg/kg/injection, schedule: Q01DX005 (ip), vehicle: distilled water + Tween-80 102 % of control | endpoint: mean survival time, dose: 200.0 mg/kg/injection, schedule: Q01DX005 (ip), vehicle: distilled water + Tween-80 98 % of control

N/C(=N\N=C\c1c(F)c(F)c(F)c(F)c1F)N[N+](=O)[O-]
inactive: [4] 106 % of control | [5] 98 % of control | [6] 96 % of control

COc1ccc(CNCCO)cc1OC
inactive: endpoint: median survival time, dose: 25.0 mg/kg/injection, schedule: Q04DX003 (ip), vehicle: saline 90 % of control | endpoint: median survival time, dose: 50.0 mg/kg/injection, schedule: Q04DX003 (ip), vehicle: saline 90 % of control | endpoint: median survival time, dose: 100.0 mg/kg/injection, schedule: Q04DX003 (ip), vehicle: saline 90 % of control | endpoint: median survival time, dose: 200.0 mg/kg/injection, schedule: Q04DX003 (ip), vehicle: saline 100 % of control

CC(=O)OC1OC(CS[As](C)C)C(OC(C)=O)C(OC(C)=O)C1OC(C)=O (stereo not given)
inactive: endpoint: mean survival time, dose: 50.0 mg/kg/injection, schedule: Q01DX009 (ip), vehicle: other 96 % of control | endpoint: mean survival time, dose: 100.0 mg/kg/injection, schedule: Q01DX009 (ip), vehicle: other 108 % of control | endpoint: mean survival time, dose: 200.0 mg/kg/injection, schedule: Q01DX009 (ip), vehicle: other 93 % of control

CC1(C)OCC(COCc2ccccc2)O1 (stereo not given)
inactive: endpoint: mean survival time, dose: 100.0 mg/kg/injection, schedule: Q01DX009 (ip), vehicle: saline 96 % of control | endpoint: mean survival time, dose: 200.0 mg/kg/injection, schedule: Q01DX009 (ip), vehicle: saline 91 % of control | endpoint: mean survival time, dose: 400.0 mg/kg/injection, schedule: Q01DX009 (ip), vehicle: saline 96 % of control

CN=C(N)N/N=C(\C)c1ccc2sc3ccc(/C(C)=N/NC(N)=NC)cc3c2c1
inactive: endpoint: median survival time, dose: 25.0 mg/kg/injection, schedule: Q01DX009 (ip), vehicle: saline with Tween-80 113 % of control and 124 % of control | endpoint: median survival time, dose: 50.0 mg/kg/injection, schedule: Q01DX009 (ip), vehicle: saline with Tween-80 112 % of control | endpoint: median survival time, dose: 100.0 mg/kg/injection, schedule: Q01DX009 (ip), vehicle: saline with Tween-80 117 % of control | endpoint: median survival time, dose: 200.0 mg/kg/injection, schedule: Q01DX009 (ip), vehicle: saline with Tween-80 119 % of control | endpoint: median survival time, dose: 400.0 mg/kg/injection, schedule: Q01DX009 (ip), vehicle: saline with Tween-80 119 % of control and 102 % of control

CC(=O)OC1CCCC(OC(C)=O)C1OC(C)=O (stereo not given)
inactive: [7] 107 % of control | [8] 96 % of control | endpoint: mean survival time, dose: 400.0 mg/kg/injection, schedule: Q04DX003 (ip), vehicle: saline 101 % of control

Cc1nc2c(NC(=O)CCl)nn(C)c2nc1C
inactive: [4] 98 % of control | [5] 95 % of control

CC(Br)C1(c2ccccc2)OCCO1 (stereo not given)
inactive: [9] 100 % of control | [2] 114 % of control | [4] 104 % of control | [10] 94 % of control | [5] 111 % of control | [11] 102 % of control | [6] 101 % of control

CC12CS(=O)(=O)CC1O2 (stereo not given)
inactive: [4] 101 % of control | [5] 96 % of control | [6] 101 % of control

CC(C(=O)O)C(C(=O)O)C(=O)O (stereo not given)
inactive: [7] 93 % of control | [8] 96 % of control

COC(=O)C(O)C(O)C(O)C(O)C(O)CO (stereo not given)
inactive: endpoint: mean survival time, dose: 100.0 mg/kg/injection, schedule: Q01DX001 (ip), vehicle: saline 95 % of control | endpoint: mean survival time, dose: 200.0 mg/kg/injection, schedule: Q01DX001 (ip), vehicle: saline 98 % of control | endpoint: mean survival time, dose: 400.0 mg/kg/injection, schedule: Q01DX001 (ip), vehicle: saline 96 % of control

Clc1ccc(N2CSCSC2)cc1
inactive: [1] 95 % of control | [2] 98 % of control | [3] 95 % of control

CC(=O)OCC1OC(N2C(=O)C=CC2=O)C(OC(C)=O)C1OC(C)=O (stereo not given)
inactive: endpoint: mean survival time, dose: 1.56 mg/kg/injection, schedule: Q01DX005 (ip), vehicle: water 110 % of control | endpoint: mean survival time, dose: 3.13 mg/kg/injection, schedule: Q01DX005 (ip), vehicle: water 96 % of control | endpoint: mean survival time, dose: 6.25 mg/kg/injection, schedule: Q01DX005 (ip), vehicle: water 104 % of control | endpoint: mean survival time, dose: 12.5 mg/kg/injection, schedule: Q01DX005 (ip), vehicle: water 95 % of control and 102 % of control | endpoint: mean survival time, dose: 25.0 mg/kg/injection, schedule: Q01DX005 (ip), vehicle: water 106 % of control

Cc1cc(=O)[nH]c(=S)[nH]1
inactive: [9] 98 % of control | endpoint: mean survival time, dose: 100.0 mg/kg/injection, schedule: Q04DX002 (ip), vehicle: saline with Tween-80 97 % of control | [10] 95 % of control | endpoint: mean survival time, dose: 200.0 mg/kg/injection, schedule: Q04DX002 (ip), vehicle: saline with Tween-80 97 % of control | [11] 88 % of control

CCCCC#CC1CCCC1 (tested in a mixture with another compound)
inactive: [1] 103 % of control | [2] 100 % of control | [3] 100 % of control
